Assay results published in patent US6387955B1, “Enhanced anti-angiogenic activity of permanently charged derivatives of steroid hormones” (Pharmos Corporation, priority 1997, dated 2002).

How the values were obtained:
Tolerability in mice = assay type: in vivo; settings: mice
MCF-7 tumors = assay: Tumor necrosis in MCF-7 tumors by T2-weighted MRI; assay type: in vivo, nude mice
Experimental: Female CD1-nu/nu athymic mice (6 weeks old) were obtained from the Weizmann Institute Department of Animal Services. MCF-7 cells, serially passed as described above, were detached from the culturing flasks with 0.03% EDTA in phosphate buffered saline (PBS) and washed several times in normal saline. Cells (10^7/innoculum) were then injected into the ventral fat pad at the level of the breast. Coincident with cell introduction, a slow-release pellet of estradiol (0.72 mg/pellet, 45-day release profile; Innovative Research, Sarasota, Fla.) was implanted subcutaneously in the flank of the animal. Mice were anesthetized with ketamine/Rompun (i.p.) for the surgical procedures. […] At this point, animals were randomized into four study groups. In the first, the estrogen pellet was removed and replaced with a slow-release TMI-laden pellet (6.3 mg, 45-day release) (n=5). In the second group, the estrogen pellet was removed and replaced with a tamoxifen pellet (n=7). The third group was treated with a blank (placebo) pellet (n=5), while the fourth group was reimplanted with an estradiol pellet (n=4). TMI and placebo-treated animals were imaged (under ketamine/Rompun anesthesia) either immediately before pellet exchange (day 0) or at day 3, 6, 12 and 25 after pellet exchange.
MRI images were recorded with a Bruker 4.7 (tesla)/30 Biospec spectrometer (Bruker Medizintechnik, Rheinstetten, Germany). 1H Spin-echo images were recorded at 200.12 MHz using a custom-made 4.5 cm rf coil with an image data matrix of 256×128 pixels. Pilot scans of the tumors were completed using a fast transverse multi-slice spin-echo sequence (giving T1-weighted spectra; inter-echo time (TE)=16 msec, recovery time (TR)=500 msec) followed by T2-weighted sequences in which axial slices perpendicular to the spine (i.e., a coronal orientation) were recorded. In the latter case, spin-echo images were obtained using a 4 cm field of view, 1 mm slice thickness, 1.2 mm slice-to-slice distance and a four-sequence average. The TE and TR were optimized to provide the best image contrast generating values of 80 and 3200 msec, respectively. This gave a total imaging time of approximately 30 min. Under the conditions reported, the in-plane resolution was 155×310 μm. Tumor size was calculated using a slice-to-slice reconstruction in which the slice surface area was obtained from histograms provided by the resident Bruker software package using the following relationship:
where XSA is the cross-sectional area of an internal slice, ES is the cross-sectional area of an edge slice, l is the slice thickness and ssd is the distance from the middle of one slice to the middle of the next. For image analysis, the average pixel intensity of viable portions of MCF-7 tumors was determined from a central tumor slice using histograms generated by the dedicated Bruker software package. […] Fibrosis was defined as those areas manifesting a decrease in pixel intensity of […].
In vivo tumor histology was assessed for TMI and placebo-treated tumors using T2-weighted MR images. […] At this time, the area of necrosis was two-fold higher than that observed on day 0 (increasing from an average of 20% to approximately 40%).

[1] = test system: murine endothelial cells in MCF-7 tumors; assay: Endothelial cell area in GSL-1 lectin stained MCF-7 tumor sections; assay type: in vivo, nude mice; settings: viable areas of tumors, three days treatment, GSL-1 staining; control tumors 14%
Experimental: For specific staining of endothelial cells, paraffin-embedded sections (4 μm) were deparafinized and rehydrated. Sections were first treated with a blocking solution containing nonimmune goat serum for 30 min at room temperature and then with a 0.1 mg/ml solution of biotinylated Griffonia simplicifolia lectin (GSL-1) for 60 min. The GSL-1 lectin binds specifically to α-galactosyl residues and marks the vascular endothelium in mice. The sections were then washed with TRIS buffered saline (TBS) and treated for 30 min with avidin-biotin-peroxidase complex (Vector Laboratories, Burlingame, Calif.), after which the peroxidase was activated by incubation of the sections with 0.1 M acetate buffer (pH 5.2) containing 3% H2O2 and 3% 3-amino-9-ethylcarbazole for 5-10 min. […] The area of stained endothelial cells was determined by measuring the area above a threshold intensity (red 46-165; green 25-119; blue 37-94) of the peroxidase reaction product in each slice. […] Ten to fifteen areas per section were recorded for tumors treated three days with either the placebo and TMI.
Vascular density of murine endothelial cells was evaluated by specific staining, using the GSL-1 lectin (the equivalent of factor VIII antibody staining for human endothelial systems) followed by color image analysis of the resulting sections. […]

[2] = test system: MMP-2 (Gelatinase A) promoter; assay: MMP-2 (Gelatinase A) related CAT activity in transfected bovine endothelial cells; assay type: cell-based
Experimental: Regulation of collagenase gene expression (for MMP-2 and MMP-9) was studied by measuring the activation of the relevant promoters linked to chloramphenicol acetyl transferase (CAT) as a reporter gene. The relevant vectors were introduced into the fibrosarcoma and endothelial cells by the lipofection as indicated by the manufacturer. CAT activity was determined after 3, 6 and 24 hrs either in the absence or presence of various concentrations of TMI.
To further examine where the inhibitory effects of TMI are manifested, human fibrosarcoma cells as well as bovine endothelial cells were transfected with plasmids containing the promoters for type IV collagenase (both MMP-2 and MMP-9) and the chloramphenicol acetyl transferase (CAT) construct to act as a reporter. Simian virus-40 (SV-40) served as the positive control. TMI was added to the transfected cells at concentrations of 1, 5 and 10 μM for 2 days, at which time cell viability was confirmed by trypan blue exclusion and cell counting.
In endothelial cells, TMI reduced CAT activity by 45% at 1.0 μM and by 80% at 10 μM.

Bovine endothelial cells = assay: Endothelial cell tube formation on Matrigel; assay type: cell-based; settings: 10 μM, image analysis
Experimental: Bovine endothelial cells were harvested by brief exposure to 1 mM EDTA, washed with DMEM containing 0.1% bovine serum albumin and added to a layer of Matrigel (basement membrane components) in a 24 well plate to a density of 50,000 cells per well. After attachment, culture media (1.0 ml) was added and the plates incubated as a monolayer culture in the presence or absence of various concentrations of TMI. The plates were analyzed hourly using Hoffman optics for endothelial tube formation and growth. Photomicrographs were taken for estimation of relative inhibitory action.
The action of TMI on angiogenesis was evaluated using in vitro techniques. Bovine endothelial cells seeded on matrigel (a basement membrane preparation made up of laminin, collagen type IV, heparin sulfate proteoglycan and entactin) will form tubes which elongate as a function of time. […] A dose of 10 μM of TMI decreased tube area by more than 70%, as measured by image analysis.

CC/C(=C(\c1ccccc1)c1ccc(OCC[N+](C)(C)C)cc1)c1ccccc1 [TMI, Tamoxifen methiodide]
tolerability (Tolerability in mice): well tolerated
total area of necrosis, day three average (MCF-7 tumors; day 3 after pellet exchange): 72%
maximum extent of necrosis (MCF-7 tumors; preliminary comparison of TMI and tamoxifen): 72%
onset of tumor necrosis (MCF-7 tumors; sampling day after pellet exchange): 3 days
mean percentage of endothelial cell areas [1]: 5%
reduction of CAT activity ([2]; 1.0 μM): 45%
reduction of CAT activity ([2]; 10 μM): 80%
decrease of tube area (Bovine endothelial cells): more than 70%
